The text below walks through data of patent US10406127B2, “Solid oral formulation of fenretinide” (LAURENT PHARMACEUTICALS, priority 2014, dated 2019).

The conditions of data set [1]: fenretinide in rats; cited from earlier work.
A short description of data set [2]: Solubility in spray-drying solvents (visually assessed). Format: physicochemical. The text has this: The solubility of Fenretinide/PVP K30 40/60% w/w mixtures was first visually assessed in various ratios of ethanol/dichloromethane. Thereafter, Spray Dryed Intermediates (SDIs) were produced from Fenretinide/PVP K30 40/60% w/w mixture solubilized at 7.5% w/v in ethanol/dichloromethane 90/10 v/v (L215-01009A), 50/50 v/v (L215-01009B) and 10/90 v/v (L215-01009C) systems for a total batch size of 15 g. The solvent was evaporated using Model GA32 Yamato® Lab Spray Dryer with the following operating parameters: 1.2 mm nozzle; about 9-15 g/min feed rate; 1.5 kg/cm^2 atomization air, and 0.35-0.55 m^3/min air flow. The inlet temperature was adjusted according to the solvent system to maintain an outlet temperature between 50-65° C.
Successive amounts of Fenretinide and PVP K30 40/60% w/w were added in 200 ml of dichloromethane until saturation of the solution. At a total solid loading of 20% w/v (40 g), the addition of Fenretinide and PVP K30 was stopped due to the increase of the solution viscosity. The solution was spray dried (lot L215-01010) with the following process parameters: 11-15 g/min feed rate; 75° C. inlet temperature; 45-48° C. outlet temperature; 0.1-0.3 MPa atomization air, and 0.40 m^3/min air flow.

Molecules are shown by their SMILES. Like-named read-outs stand apart in the source and are kept apart here.

Consider `CC1=C(/C=C/C(C)=C/C=C/C(C)=C/C(=O)Nc2ccc(O)cc2)C(C)(C)CCC1` [Fenretinide, all-trans-N-(4-hydroxyphenyl) retinamide], for which, in data set [1], the “elimination half-life, literature data” value is 7 to 10 h. For the same molecule, the solubility in data set [2] (dichloromethane 100% with PVP K30, organic solvent or mixture, thermodynamic from solid, solubilised with PVP K30 in a ratio of 40/60 w/w, DCM 100%, read-out: solubility of Fenretinide) was over 50 mg/mL; in data set [2] (ethanol 100% with PVP K30, organic solvent or mixture, thermodynamic from solid, solubilised with PVP K30 in a ratio of 40/60 w/w, ethanol 100%, read-out: solubility of Fenretinide) it was about 34 mg/mL; in data set [2] (ethanol/dichloromethane 50/50 v/v with PVP K30, organic solvent or mixture, thermodynamic from solid, solubilised with PVP K30 in a ratio of 40/60 w/w, ethanol/DCM 50/50 v/v, read-out: solubility of Fenretinide) it was over 50 mg/mL; in data set [2] (mixture of methanol/dichloromethane (1:1)) it was “very soluble”; in data set [2] (pure dichloromethane), “very soluble”.
